Source: US7319098B2, “1,3-dioxoisoindole derivatives having selective antagonism of T-type calcium channel” (Korea Institute of Science and Technology, priority 2006, dated 2008)

Biological target: T1, α1G T-type Ca2+ channels (Homo sapiens, UniProt O43497)
T1 construct: expressed in transfected cells; host or cells: HEK293 cells stably expressing α1G and Kir2.1
Experiment: Screening of activity against T-type calcium channel with FDSS6000 (fluorescence, KCl-induced [Ca2+]i increase)
Format: cell-based
Conditions: 10 μM; HEK293 cells expressing α1G and Kir2.1; NA: Not Active; read-out: Inhibitory effect (%) of T-type calcium channel, Inhibition (%)
In short: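 HEK293 cells stably expressing α1G plus Kir2.1 were loaded with 5 μM fluo3/AM for 60 min at room temperature in HEPES buffer pH 7.4. In buffer with 10 mM CaCl2, cells were pretreated with compound, then depolarized with 70 mM KCl. The rise in [Ca2+]i was measured by fluorescence […].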

T1 sequence (O43497 whole entry): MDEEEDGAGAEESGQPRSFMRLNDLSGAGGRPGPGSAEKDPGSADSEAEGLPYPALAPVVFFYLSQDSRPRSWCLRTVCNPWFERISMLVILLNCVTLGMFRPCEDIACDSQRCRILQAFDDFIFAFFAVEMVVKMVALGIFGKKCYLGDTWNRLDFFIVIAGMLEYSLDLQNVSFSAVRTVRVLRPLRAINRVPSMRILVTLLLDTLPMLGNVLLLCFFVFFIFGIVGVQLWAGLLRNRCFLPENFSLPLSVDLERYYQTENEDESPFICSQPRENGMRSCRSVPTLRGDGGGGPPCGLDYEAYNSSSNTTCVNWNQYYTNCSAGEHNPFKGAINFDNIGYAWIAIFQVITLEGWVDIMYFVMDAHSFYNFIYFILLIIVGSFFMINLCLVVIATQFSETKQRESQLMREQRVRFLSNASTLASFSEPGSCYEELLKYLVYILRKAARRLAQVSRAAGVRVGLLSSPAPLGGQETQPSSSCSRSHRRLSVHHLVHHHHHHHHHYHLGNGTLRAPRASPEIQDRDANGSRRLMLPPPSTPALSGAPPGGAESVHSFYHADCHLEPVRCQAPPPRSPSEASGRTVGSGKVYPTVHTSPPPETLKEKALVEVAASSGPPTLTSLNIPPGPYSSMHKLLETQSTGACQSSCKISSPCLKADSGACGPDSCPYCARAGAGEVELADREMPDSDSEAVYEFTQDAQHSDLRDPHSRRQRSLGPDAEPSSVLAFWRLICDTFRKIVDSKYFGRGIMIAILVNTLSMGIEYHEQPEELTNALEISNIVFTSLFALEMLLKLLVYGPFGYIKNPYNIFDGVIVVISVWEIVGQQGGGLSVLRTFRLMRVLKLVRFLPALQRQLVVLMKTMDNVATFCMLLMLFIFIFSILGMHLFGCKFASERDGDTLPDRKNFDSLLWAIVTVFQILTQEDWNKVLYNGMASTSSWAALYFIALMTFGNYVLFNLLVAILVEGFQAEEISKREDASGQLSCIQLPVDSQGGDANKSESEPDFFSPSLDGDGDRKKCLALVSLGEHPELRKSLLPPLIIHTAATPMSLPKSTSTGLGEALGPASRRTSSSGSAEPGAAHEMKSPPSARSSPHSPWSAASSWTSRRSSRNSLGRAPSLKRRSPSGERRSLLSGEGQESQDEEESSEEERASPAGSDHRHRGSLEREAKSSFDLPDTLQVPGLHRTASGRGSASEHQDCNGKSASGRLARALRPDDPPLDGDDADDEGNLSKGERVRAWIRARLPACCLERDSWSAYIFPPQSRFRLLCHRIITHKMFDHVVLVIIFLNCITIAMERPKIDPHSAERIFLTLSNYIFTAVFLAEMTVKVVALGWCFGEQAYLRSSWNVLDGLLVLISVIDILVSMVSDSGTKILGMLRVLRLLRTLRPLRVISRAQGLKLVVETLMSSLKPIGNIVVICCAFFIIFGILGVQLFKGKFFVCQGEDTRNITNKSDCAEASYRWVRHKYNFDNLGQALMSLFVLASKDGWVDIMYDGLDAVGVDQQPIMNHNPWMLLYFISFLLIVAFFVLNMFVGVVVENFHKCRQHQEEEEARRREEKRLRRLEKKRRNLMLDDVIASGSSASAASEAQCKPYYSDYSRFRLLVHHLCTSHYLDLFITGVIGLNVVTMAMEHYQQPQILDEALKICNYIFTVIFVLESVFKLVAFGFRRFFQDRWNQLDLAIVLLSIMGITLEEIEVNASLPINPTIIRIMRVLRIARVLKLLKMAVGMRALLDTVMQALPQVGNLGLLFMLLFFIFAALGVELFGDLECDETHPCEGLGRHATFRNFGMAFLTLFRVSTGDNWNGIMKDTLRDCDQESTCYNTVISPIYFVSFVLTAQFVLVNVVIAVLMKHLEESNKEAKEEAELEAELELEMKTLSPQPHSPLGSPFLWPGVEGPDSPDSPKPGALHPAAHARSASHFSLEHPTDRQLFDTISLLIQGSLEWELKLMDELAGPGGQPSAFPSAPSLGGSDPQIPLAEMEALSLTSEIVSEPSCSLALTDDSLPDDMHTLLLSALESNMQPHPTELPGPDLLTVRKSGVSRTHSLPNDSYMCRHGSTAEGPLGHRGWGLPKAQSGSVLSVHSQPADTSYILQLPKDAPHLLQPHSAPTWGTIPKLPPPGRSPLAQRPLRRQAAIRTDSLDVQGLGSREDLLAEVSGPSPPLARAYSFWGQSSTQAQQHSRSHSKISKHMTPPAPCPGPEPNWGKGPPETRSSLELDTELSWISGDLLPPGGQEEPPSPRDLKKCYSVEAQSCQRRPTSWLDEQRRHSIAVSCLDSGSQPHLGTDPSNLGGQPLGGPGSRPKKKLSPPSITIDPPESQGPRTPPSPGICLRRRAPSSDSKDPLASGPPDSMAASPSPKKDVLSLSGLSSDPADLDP

| SMILES | inhibition at 10 µM [%] |
| --- | --- |
| Cc1ccc(CN2C(=O)c3ccc(C(=O)NCCN4CCCCC4)cc3C2=O)cc1 [Compound 105, 1-(2-{[2-(4-methyl-benzyl)-1,3-dioxo-2,3-dihydro-1H-isoindol-5-carbonyl]-amino}-ethyl)-piperidinium chloride] | 30.9 |
| O=C(NCCCN1CCOCC1)c1ccc2c(c1)C(=O)N(Cc1cccc(Cl)c1)C2=O [Compound 86, 4-(3-{[2-(3-chloro-benzyl)-1,3-dioxo-2,3-dihydro-1H-isoindol-5-carbonyl]-amino}-propyl)-4-morpholinium chloride] | 27.8 |
| O=C(NCCN1CCCC1)c1ccc2c(c1)C(=O)N(Cc1ccc(Cl)cc1)C2=O [Compound 89, 1-(2-{[2-(4-chloro-benzyl)-1,3-dioxo-2,3-dihydro-1H-isoindol-5-carbonyl]-amino}-ethyl)-pyrrolidinium chloride] | 29.8 |
| Cc1cccc(CN2C(=O)c3ccc(C(=O)NCCN4CCCC4)cc3C2=O)c1 [Compound 101, 1-(2-{[2-(3-methyl-benzyl)-1,3-dioxo-2,3-dihydro-1H-isoindol-5-carbonyl]-amino}-ethyl)-pyrrolidinium chloride] | 27.2 |
| O=C(NCCN1CCOCC1)c1ccc2c(c1)C(=O)N(Cc1ccccc1Cl)C2=O [Compound 79, 4-(2-{[2-(2-chloro-benzyl)-1,3-dioxo-2,3-dihydro-1H-isoindol-5-carbonyl]-amino}-ethyl)-4-morpholinium chloride] | 15.6 |
| Cc1ccc(N2C(=O)c3ccc(C(=O)NCCN4CCCC4)cc3C2=O)cc1 [Compound 41, 1-{2-[(1,3-dioxo-2-p-tolyl-2,3-dihydro-1H-isoindol-5-carbonyl)-amino]-ethyl}-pyrrolidinium chloride] | 2 |
| Cc1ccc(N2C(=O)c3ccc(C(=O)NCCCN4CCCCC4C)cc3C2=O)cc1 (stereo not shown) [Compound 40, 1-{3-[(1,3-dioxo-2-p-tolyl-2,3-dihydro-1H-isoindol-5-carbonyl)-amino]-propyl}-2-methyl-piperidinium chloride] | 11.7 |
| N#Cc1ccc(CN2C(=O)c3ccc(C(=O)NCCN4CCCC4)cc3C2=O)cc1 [Compound 131, 1-(2-{[2-(4-cyano-benzyl)-1,3-dioxo-2,3-dihydro-1H-isoindol-5-carbonyl]-amino}-ethyl)-pyrrolidinium chloride] | 0.6 |
| O=C(NCCN1CCOCC1)c1ccc2c(c1)C(=O)N(Cc1ccc(Cl)cc1)C2=O [Compound 91, 4-(2-{[2-(4-chloro-benzyl)-1,3-dioxo-2,3-dihydro-1H-isoindol-5-carbonyl]-amino}-ethyl)-4-morpholinium chloride] | 26.1 |
| CN1CCN(CCCNC(=O)c2ccc3c(c2)C(=O)N(Cc2ccc(F)cc2)C3=O)CC1 [Compound 74, 1-(3-{[2-(4-fluoro-benzyl)-1,3-dioxo-2,3-dihydro-1H-isoindol-5-carbonyl]-amino}-propyl)-4-methyl-1-piperazinium chloride] | 5.6 |
| Cc1cccc(CN2C(=O)c3ccc(C(=O)NCCCN4CCOCC4)cc3C2=O)c1 [Compound 104, 4-(3-{[2-(3-methyl-benzyl)-1,3-dioxo-2,3-dihydro-1H-isoindol-5-carbonyl]-amino}-propyl)-4-morpholinium chloride] | 15.5 |
| O=C(NCCN1CCCCC1)c1ccc2c(c1)C(=O)N(Cc1ccccc1Cl)C2=O [Compound 75, 1-(2-{[2-(2-chloro-benzyl)-1,3-dioxo-2,3-dihydro-1H-isoindol-5-carbonyl]-amino}-ethyl)-piperidinium chloride] | 33.6 |

Same assay, conditions: 100 μM; HEK293 cells expressing α1G and Kir2.1; read-out: Inhibitory effect (%) of T-type calcium channel, Inhibition (%)

| SMILES | inhibition at 100 µM [%] |
| --- | --- |
| O=C(NCCN1CCOCC1)c1ccc2c(c1)C(=O)N(c1cccc(F)c1)C2=O [Compound 17, 4-(2-{[2-(3-fluoro-phenyl)-1,3-dioxo-2,3-dihydro-1H-isoindol-5-carbonyl]-amino}-ethyl)-4-morpholinium chloride] | 29.2 |
| O=C(NCCN1CCCCC1)c1ccc2c(c1)C(=O)N(Cc1ccccc1F)C2=O [Compound 55, 1-(2-{[2-(2-fluoro-benzyl)-1,3-dioxo-2,3-dihydro-1H-isoindol-5-carbonyl]-amino}-ethyl)-piperidinium chloride] | 79.9 |
| O=C(NCCN1CCCC1)c1ccc2c(c1)C(=O)N(Cc1ccccc1F)C2=O [Compound 57, 1-(2-{[2-(2-fluoro-benzyl)-1,3-dioxo-2,3-dihydro-1H isoindol-5-carbonyl]-amino}-ethyl)-pyrrolidinium chloride] | 65.5 |
| O=C(NCCCN1CCOCC1)c1ccc2c(c1)C(=O)N(c1ccccc1)C2=O [Compound 6, 4-{3-[(1,3-dioxo-2-phenyl-2,3-dihydro-1H-isoindol-5-carbonyl)-amino]-propyl}-4-morpholinium chloride] | 22.3 |
| Cc1ccccc1N1C(=O)c2ccc(C(=O)NCCCN3CCCCC3C)cc2C1=O (stereo not shown) [Compound 29, 1-{3-[(1,3-dioxo-2-o-tolyl-2,3-dihydro-1H-isoindol-5-carbonyl)-amino]-propyl}-2-methyl-piperidinium chloride] | 53.8 |
| O=C(NCCN1CCOCC1)c1ccc2c(c1)C(=O)N(Cc1ccccc1F)C2=O [Compound 59, 4-(2-{[2-(2-fluoro-benzyl)-1,3-dioxo-2,3-dihydro-1H-isoindol-5-carbonyl]-amino}-ethyl)-4-morpholinium chloride] | 30.2 |
| O=C(NCCN1CCOCC1)c1ccc2c(c1)C(=O)N(c1ccc(F)cc1)C2=O [Compound 23, 4-(2-{[2-(4-fluoro-phenyl)-1,3-dioxo-2,3-dihydro-1H-isoindol-5-carbonyl]-amino}-ethyl)-4-morpholinium chloride] | 14.5 |
| O=C(NCCN1CCCC1)c1ccc2c(c1)C(=O)N(c1ccccc1F)C2=O [Compound 9, 1-(2-{[2-(2-fluoro-phenyl)-1,3-dioxo-2,3-dihydro-1H-isoindol-5-carbonyl]-amino}-ethyl)-pyrrolidinium chloride] | 39.7 |
| COc1ccccc1CN1C(=O)c2ccc(C(=O)NCCN3CCCCC3)cc2C1=O [Compound 111, 1-(2-{[2-(2-methoxy-benzyl)-1,3-dioxo-2,3-dihydro-1H-isoindol-5-carbonyl]-amino}-ethyl)-piperidinium chloride] | 69.5 |
| O=C(NCCCN1CCCC1)c1ccc2c(c1)C(=O)N(c1ccccc1F)C2=O [Compound 10, 1-(3-{[2-(2-fluoro-phenyl)-1,3-dioxo-2,3-dihydro-1H-isoindol-5-carbonyl]-amino}-propyl)-pyrrolidinium chloride] | 32.5 |
| COc1ccccc1CN1C(=O)c2ccc(C(=O)NCCN3CCCC3)cc2C1=O [Compound 113, 1-(2-{[2-(2-methoxy-benzyl)-1,3-dioxo-2,3-dihydro-1H-isoindol-5-carbonyl]-amino}-ethyl)-pyrrolidinium chloride] | 55.1 |
| COc1ccc(CN2C(=O)c3ccc(C(=O)NCCN4CCOCC4)cc3C2=O)cc1 [Compound 127, 4-(2-{[2-(4-methoxy-benzyl)-1,3-dioxo-2,3-dihydro-1H-isoindol-5-carbonyl]-amino}-ethyl)-4-morpholinium chloride] | 51.7 |
| O=C(NCCN1CCOCC1)c1ccc2c(c1)C(=O)N(c1ccccc1)C2=O [Compound 5, 4-{2-[(1,3-dioxo-2-phenyl-2,3-dihydro-1H-isoindol-5-carbonyl)-amino]-ethyl}-4-morpholinium chloride] | 22.7 |
